Test results: PMC7789494 (Microbial Cell Factories, 2021)

Target: T1, PcCDHTr (Phanerodontia chrysosporium, UniProt Q01738)
T1 construct: gene CDH-1; full two-domain flavocytochrome, native signal peptide (cleaved), untagged, secreted by Trichoderma reesei delta-xyr1; 83 kDa by SDS-PAGE
Test: TCA precipitation, released FAD by A450
Type: binding
Settings: co-purified cofactor

T1 sequence (Q01738 19-773): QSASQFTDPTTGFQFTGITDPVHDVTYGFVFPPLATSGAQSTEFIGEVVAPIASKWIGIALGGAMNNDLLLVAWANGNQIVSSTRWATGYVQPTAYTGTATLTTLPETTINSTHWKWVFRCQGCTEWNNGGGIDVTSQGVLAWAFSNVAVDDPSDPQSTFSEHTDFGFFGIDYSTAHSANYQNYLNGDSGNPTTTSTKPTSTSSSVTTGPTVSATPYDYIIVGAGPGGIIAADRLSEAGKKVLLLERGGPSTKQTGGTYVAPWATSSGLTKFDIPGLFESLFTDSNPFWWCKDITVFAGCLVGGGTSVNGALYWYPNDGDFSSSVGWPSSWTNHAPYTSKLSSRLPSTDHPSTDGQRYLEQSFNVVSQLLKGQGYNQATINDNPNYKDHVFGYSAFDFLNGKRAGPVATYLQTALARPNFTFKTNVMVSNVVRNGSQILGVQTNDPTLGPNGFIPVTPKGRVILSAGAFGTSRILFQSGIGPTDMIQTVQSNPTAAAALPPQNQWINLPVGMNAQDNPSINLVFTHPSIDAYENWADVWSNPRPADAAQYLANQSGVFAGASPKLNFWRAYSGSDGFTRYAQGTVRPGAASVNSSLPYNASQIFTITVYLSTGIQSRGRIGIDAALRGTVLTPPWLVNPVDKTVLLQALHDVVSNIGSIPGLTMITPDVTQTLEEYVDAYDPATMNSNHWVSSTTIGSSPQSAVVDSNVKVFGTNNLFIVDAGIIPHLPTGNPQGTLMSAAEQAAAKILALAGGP

FAD occupancy: 70%
SMILES: Cc1cc2nc3c(=O)[nH]c(=O)nc-3n(C[C@H](O)[C@H](O)[C@H](O)COP(=O)(O)OP(=O)(O)OC[C@H]3O[C@@H](n4cnc5c(N)ncnc54)[C@H](O)[C@@H]3O)c2cc1C [FAD]
